Measured values from patent publication US10392391B2 (Vertex Pharmaceuticals Incorporated, priority 2012, dated 2019).

Target: ATR kinase (full-length ATR) (Homo sapiens (Human), UniProt Q13535)
Assay: ATR inhibition assay (radioactive-phosphate incorporation)
Type: biochemical
Conditions: not given
Method: Compounds were screened for their ability to inhibit ATR kinase using a radioactive-phosphate incorporation assay. Assays were carried out in a mixture of 50 mM Tris/HCl (pH 7.5), 10 mM MgCl2 and 1 mM DTT. Final substrate concentrations were 10 μM [γ-33P]ATP (3mCi 33P ATP/mmol ATP, Perkin Elmer) and 800 μM target peptide ([…]) (SEQ ID NO:1).
Assays were carried out at 25° C. in the presence of 5 nM full-length ATR. An assay stock buffer solution was prepared containing all of the reagents listed above, with the exception of ATP and the test compound of interest. 13.5 μL of the stock solution was placed in a 96 well plate followed by addition of 2 μL of DMSO stock containing serial dilutions of the test compound (typically starting from a final concentration of 15 μM with 3-fold serial dilutions) in duplicate (final DMSO concentration 7%). The plate was pre-incubated for 10 minutes at 25° C. and the reaction initiated by addition of 15 μL [γ-33P]ATP (final concentration 10 μM).
The reaction was stopped after […] by the addition of 30 μL 0.1M phosphoric acid containing 2 mM ATP. A multiscreen phosphocellulose filter 96-well plate (Millipore, Cat no. MAPHN0B50) was pretreated with 100 μL 0.2M phosphoric acid prior to the addition of […] of the stopped assay mixture. The plate was washed with 5×200 μL 0.2M phosphoric acid. After drying, 100 μL Optiphase ‘SuperMix’ liquid scintillation cocktail (Perkin Elmer) was added to the well prior to scintillation counting (1450 Microbeta Liquid Scintillation Counter, Wallac).
After removing mean background values for all of the data points, Ki(app) data were calculated from non-linear regression analysis of the initial rate data using the Prism software package (GraphPad Prism version 3.0cx for Macintosh, GraphPad Software, San Diego Calif., USA).

ATR kinase (full-length ATR), sequence (Q13535 whole entry): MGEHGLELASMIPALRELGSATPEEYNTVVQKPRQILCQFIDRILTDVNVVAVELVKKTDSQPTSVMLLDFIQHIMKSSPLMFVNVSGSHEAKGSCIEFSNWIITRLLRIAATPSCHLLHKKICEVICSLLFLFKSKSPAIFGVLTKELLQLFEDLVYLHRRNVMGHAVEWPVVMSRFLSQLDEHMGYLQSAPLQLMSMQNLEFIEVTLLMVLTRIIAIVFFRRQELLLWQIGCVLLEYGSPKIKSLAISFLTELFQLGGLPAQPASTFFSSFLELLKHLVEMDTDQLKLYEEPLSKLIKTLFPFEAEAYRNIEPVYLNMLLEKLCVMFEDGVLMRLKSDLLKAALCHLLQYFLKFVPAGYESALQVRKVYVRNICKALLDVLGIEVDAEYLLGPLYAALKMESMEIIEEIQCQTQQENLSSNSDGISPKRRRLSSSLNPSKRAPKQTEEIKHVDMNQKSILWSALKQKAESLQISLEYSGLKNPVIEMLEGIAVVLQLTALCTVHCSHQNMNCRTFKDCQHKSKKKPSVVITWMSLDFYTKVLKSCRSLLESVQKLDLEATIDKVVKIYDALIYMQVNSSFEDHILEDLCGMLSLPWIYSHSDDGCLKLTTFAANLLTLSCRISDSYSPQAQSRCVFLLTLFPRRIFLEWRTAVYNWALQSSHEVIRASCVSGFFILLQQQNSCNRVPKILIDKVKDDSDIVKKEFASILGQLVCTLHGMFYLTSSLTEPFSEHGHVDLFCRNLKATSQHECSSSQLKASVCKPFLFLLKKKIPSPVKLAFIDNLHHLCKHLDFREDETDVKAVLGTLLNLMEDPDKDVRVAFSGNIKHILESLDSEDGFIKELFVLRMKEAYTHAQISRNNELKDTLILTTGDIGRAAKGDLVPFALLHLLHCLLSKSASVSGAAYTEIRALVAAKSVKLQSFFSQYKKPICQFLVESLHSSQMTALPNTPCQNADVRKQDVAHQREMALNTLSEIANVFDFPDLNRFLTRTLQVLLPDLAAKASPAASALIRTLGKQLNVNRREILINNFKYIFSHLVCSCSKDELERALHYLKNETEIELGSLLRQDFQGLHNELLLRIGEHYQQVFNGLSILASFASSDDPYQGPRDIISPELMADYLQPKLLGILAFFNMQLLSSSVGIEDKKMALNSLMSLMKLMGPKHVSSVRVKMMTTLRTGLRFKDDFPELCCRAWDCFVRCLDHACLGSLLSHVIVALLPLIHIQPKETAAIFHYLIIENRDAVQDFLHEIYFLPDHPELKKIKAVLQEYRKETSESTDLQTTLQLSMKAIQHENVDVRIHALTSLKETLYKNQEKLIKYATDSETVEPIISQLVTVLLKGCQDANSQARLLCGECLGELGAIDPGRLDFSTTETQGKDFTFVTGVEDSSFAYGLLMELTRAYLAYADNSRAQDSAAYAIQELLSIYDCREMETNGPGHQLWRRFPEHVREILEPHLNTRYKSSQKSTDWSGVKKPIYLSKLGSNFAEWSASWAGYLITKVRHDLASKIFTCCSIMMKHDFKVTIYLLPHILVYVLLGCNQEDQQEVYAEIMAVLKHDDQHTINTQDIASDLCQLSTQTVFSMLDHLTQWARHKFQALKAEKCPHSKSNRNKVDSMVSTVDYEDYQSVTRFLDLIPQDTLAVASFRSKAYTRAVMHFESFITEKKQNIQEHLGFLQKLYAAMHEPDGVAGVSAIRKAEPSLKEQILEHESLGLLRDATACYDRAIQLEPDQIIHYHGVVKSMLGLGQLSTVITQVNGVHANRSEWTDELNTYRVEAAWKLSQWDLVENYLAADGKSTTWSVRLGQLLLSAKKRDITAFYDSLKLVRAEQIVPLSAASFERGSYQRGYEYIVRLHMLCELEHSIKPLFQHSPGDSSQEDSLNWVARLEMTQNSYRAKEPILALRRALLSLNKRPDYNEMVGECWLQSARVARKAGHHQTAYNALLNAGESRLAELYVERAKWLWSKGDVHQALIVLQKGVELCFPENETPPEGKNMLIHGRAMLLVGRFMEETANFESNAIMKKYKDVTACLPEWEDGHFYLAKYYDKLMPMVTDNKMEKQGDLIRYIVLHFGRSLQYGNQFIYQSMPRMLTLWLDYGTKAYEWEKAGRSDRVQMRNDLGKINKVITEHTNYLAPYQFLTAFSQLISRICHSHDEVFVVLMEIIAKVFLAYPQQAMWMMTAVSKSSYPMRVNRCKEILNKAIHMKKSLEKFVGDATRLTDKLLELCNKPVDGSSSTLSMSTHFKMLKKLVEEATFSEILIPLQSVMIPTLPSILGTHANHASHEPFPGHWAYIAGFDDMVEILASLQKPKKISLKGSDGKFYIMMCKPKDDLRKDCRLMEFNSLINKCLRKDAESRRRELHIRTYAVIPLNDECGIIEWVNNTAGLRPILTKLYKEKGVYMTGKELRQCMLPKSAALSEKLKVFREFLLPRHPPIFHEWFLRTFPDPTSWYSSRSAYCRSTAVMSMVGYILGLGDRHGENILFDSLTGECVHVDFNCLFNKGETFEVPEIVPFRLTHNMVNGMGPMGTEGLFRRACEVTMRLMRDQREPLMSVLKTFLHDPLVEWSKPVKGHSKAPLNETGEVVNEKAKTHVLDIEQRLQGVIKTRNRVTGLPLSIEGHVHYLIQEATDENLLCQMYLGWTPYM

| SMILES | Ki [µM] |
| --- | --- |
| Nc1nn2cc(F)cnc2c1C(=O)Nc1cncc(F)c1N1CCC(C(=O)N2CC(O)C2)CC1 [I-G-41, 2-amino-6-fluoro-N-(5-fluoro-4-(4-(3-hydroxyazetidine-1-carbonyl)piperidin-1-yl)pyridin-3-yl)pyrazolo[1,5-a]pyrimidine-3-carboxamide] | 1 to 5 |

Same assay, conditions: Ki(app), 5 nM full-length ATR, 10 μM ATP, 25° C.

| SMILES | Ki [µM] |
| --- | --- |
| CN1CCC(C(=O)N2CCN(c3c(F)cncc3NC(=O)c3c(N)nn4cc(F)cnc34)CC2)CC1 [I-N-128, 2-amino-6-fluoro-N-(5-fluoro-4-(4-(1-methylpiperidine-4-carbonyl)piperazin-1-yl)pyridin-3-yl)pyrazolo[1,5-a]pyrimidine-3-carboxamide] | 0.01 to 1 |
| Nc1nn2cc(F)cnc2c1C(=O)Nc1cncc(F)c1N1CCC(C(=O)N2CCN3CC[C@H]2C3)CC1 [I-G-70, N-(4-(4-((5S)-1,4-diazabicyclo[3.2.1]octane-4-carbonyl)piperidin-1-yl)-5-fluoropyridin-3-yl)-2-amino-6-fluoropyrazolo[1,5-a]pyrimidine-3-carboxamide] | 0.01 to 1 |
| Nc1nn2cc(F)cnc2c1C(=O)Nc1cncc(F)c1N1CCC(C(=O)N2CCN(C3CC3)CC2)CC1 [I-G-13, 2-amino-N-(4-(4-(4-cyclopropylpiperazine-1-carbonyl)piperidin-1-yl)-5-fluoropyridin-3-yl)-6-fluoropyrazolo[1,5-a]pyrimidine-3-carboxamide] | 0.01 to 1 |
| Nc1nn2cc(F)cnc2c1C(=O)Nc1cncc(F)c1N1CCN2C(=O)CCC[C@@H]2C1 [I-N-280, (R)-2-amino-6-fluoro-N-(5-fluoro-4-(6-oxohexahydro-1H-pyrido[1,2-a]pyrazin-2(6H)-yl)pyridin-3-yl)pyrazolo[1,5-a]pyrimidine-3-carboxamide] | 0.01 to 1 |
| CC(C)(C)Oc1ccncc1NC(=O)c1c(N)nn2cc(F)cnc12 [I-O-88, 2-amino-N-(4-(tert-butoxy)pyridin-3-yl)-6-fluoropyrazolo[1,5-a]pyrimidine-3-carboxamide] | 0.01 to 1 |
| Nc1nn2cc(F)cnc2c1C(=O)Nc1cncc(F)c1N1CCN(C(=O)CN2CCCC2)CC1 [I-N-187, 2-amino-6-fluoro-N-(5-fluoro-4-(4-(2-(pyrrolidin-1-yl)acetyl)piperazin-1-yl)pyridin-3-yl)pyrazolo[1,5-a]pyrimidine-3-carboxamide] | 0.01 to 1 |
| Nc1nn2cc(F)cnc2c1C(=O)Nc1cnccc1C1CCN(S(=O)(=O)C2CC2)CC1 [I-C-47, 2-amino-N-(4-(1-(cyclopropylsulfonyl)piperidin-4-yl)pyridin-3-yl)-6-fluoropyrazolo[1,5-a]pyrimidine-3-carboxamide] | 0.01 to 1 |
| Nc1nn2cc(F)cnc2c1C(=O)Nc1cncc(F)c1N1CCC(C(=O)N2CC(F)(F)C2)CC1 [I-G-73, 2-amino-N-(4-(4-(3,3-difluoroazetidine-1-carbonyl)piperidin-1-yl)-5-fluoropyridin-3-yl)-6-fluoropyrazolo[1,5-a]pyrimidine-3-carboxamide] | 0.01 to 1 |
| C[C@H]1CN(C2COC2)CCN1c1ccncc1NC(=O)c1c(N)nn2cc(F)cnc12 [I-N-24, (S)-2-amino-6-fluoro-N-(4-(2-methyl-4-(oxetan-3-yl)piperazin-1-yl)pyridin-3-yl)pyrazolo[1,5-a]pyrimidine-3-carboxamide] | 0.01 to 1 |
| CC1(N2CCN(c3ccncc3NC(=O)c3c(N)nn4cc(F)cnc34)CC2)COC1 [I-N-62, 2-amino-6-fluoro-N-(4-(4-(3-methyloxetan-3-yl)piperazin-1-yl)pyridin-3-yl)pyrazolo[1,5-a]pyrimidine-3-carboxamide] | 0.01 to 1 |
| CC(=O)N1CCCC12CCN(c1ccncc1NC(=O)c1c(N)nn3cc(F)cnc13)CC2 [I-N-262, N-(4-(1-acetyl-1,8-diazaspiro[4.5]decan-8-yl)pyridin-3-yl)-2-amino-6-fluoropyrazolo[1,5-a]pyrimidine-3-carboxamide] | 0.01 to 1 |
| Nc1nn2cc(F)cnc2c1C(=O)Nc1cncc(F)c1N1CCC(n2ccnc2)CC1 [I-N-288, N-(4-(4-(1H-imidazol-1-yl)piperidin-1-yl)-5-fluoropyridin-3-yl)-2-amino-6-fluoropyrazolo[1,5-a]pyrimidine-3-carboxamide] | 0.01 to 1 |
| CN1CCN(c2c(F)cncc2NC(=O)c2c(N)nn3cc(F)cnc23)CC1=O [I-N-212, 2-amino-6-fluoro-N-(5-fluoro-4-(4-methyl-3-oxopiperazin-1-yl)pyridin-3-yl)pyrazolo[1,5-a]pyrimidine-3-carboxamide] | 0.01 to 1 |
| CN1CCN(C(=O)C2(C#N)CCN(c3c(F)cncc3NC(=O)c3c(N)nn4cc(F)cnc34)CC2)CC1 [I-G-25, 2-amino-N-(4-(4-cyano-4-(4-methylpiperazine-1-carbonyl)piperidin-1-yl)-5-fluoropyridin-3-yl)-6-fluoropyrazolo[1,5-a]pyrimidine-3-carboxamide] | 0.01 to 1 |
| Nc1nn2cc(F)cnc2c1C(=O)Nc1cnccc1-c1cccnc1O [I-C-32, 2-amino-6-fluoro-N-(2-hydroxy-[3,4′-bipyridin]-3′-yl)pyrazolo[1,5-a]pyrimidine-3-carboxamide] | 0.01 to 1 |
| Nc1nn2cc(F)cnc2c1C(=O)Nc1cncc(F)c1N1CCN(C(=O)C2CNCCO2)CC1 (centres unmarked) [I-N-172, 2-amino-6-fluoro-N-(5-fluoro-4-(4-(morpholine-2-carbonyl)piperazin-1-yl)pyridin-3-yl)pyrazolo[1,5-a]pyrimidine-3-carboxamide] | 0.01 to 1 |
| CN(C)C1CN(C2CCN(c3ccncc3NC(=O)c3c(N)nn4cc(Cl)cnc34)CC2)C1 [I-N-94, 2-amino-6-chloro-N-(4-(4-(3-(dimethylamino)azetidin-1-yl)piperidin-1-yl)pyridin-3-yl)pyrazolo[1,5-a]pyrimidine-3-carboxamide] | 0.01 to 1 |
| Nc1nn2cc(F)cnc2c1C(=O)Nc1cnccc1-c1cccnc1 [I-C-15, N-([3,4′-bipyridin]-3′-yl)-2-amino-6-fluoropyrazolo[1,5-a]pyrimidine-3-carboxamide] | 0.01 to 1 |
| Cc1cncc(NC(=O)c2c(N)nn3cc(Cl)cnc23)c1N1CCN(C)CC1 [I-N-57, 2-amino-6-chloro-N-(5-methyl-4-(4-methylpiperazin-1-yl)pyridin-3-yl)pyrazolo[1,5-a]pyrimidine-3-carboxamide] | 0.01 to 1 |
| Cn1nncc1-c1ccncc1NC(=O)c1c(N)nn2cc(F)cnc12 [I-C-72, 2-amino-6-fluoro-N-(4-(1-methyl-1H-1,2,3-triazol-5-yl)pyridin-3-yl)pyrazolo[1,5-a]pyrimidine-3-carboxamide] | 0.01 to 1 |
| CN1CC2(CCN(c3ccncc3NC(=O)c3c(N)nn4cc(F)cnc34)CC2)CC1=O [I-N-236, 2-amino-6-fluoro-N-(4-(2-methyl-3-oxo-2,8-diazaspiro[4.5]decan-8-yl)pyridin-3-yl)pyrazolo[1,5-a]pyrimidine-3-carboxamide] | 0.01 to 1 |
| Nc1nn2cc(F)cnc2c1C(=O)Nc1cncc(F)c1N1CCC(S(=O)(=O)N2CCOCC2)CC1 [I-N-155, 2-amino-6-fluoro-N-(5-fluoro-4-(4-(morpholinosulfonyl)piperidin-1-yl)pyridin-3-yl)pyrazolo[1,5-a]pyrimidine-3-carboxamide] | 0.01 to 1 |
| Nc1nn2cc(F)cnc2c1C(=O)Nc1cncc(F)c1N1CCC(C(=O)N2CCN3CC[C@@H]2C3)CC1 [I-G-71, N-(4-(4-((5R)-1,4-diazabicyclo[3.2.1]octane-4-carbonyl)piperidin-1-yl)-5-fluoropyridin-3-yl)-2-amino-6-fluoropyrazolo[1,5-a]pyrimidine-3-carboxamide] | 0.01 to 1 |
| Nc1nn2cc(Cl)cnc2c1C(=O)Nc1cnccc1N1CCC(N2CC[C@H](F)C2)CC1 [I-N-103, (S)-2-amino-6-chloro-N-(4-(4-(3-fluoropyrrolidin-1-yl)piperidin-1-yl)pyridin-3-yl)pyrazolo[1,5-a]pyrimidine-3-carboxamide] | 0.01 to 1 |
| CN1CCN(CC2CCN(c3c(F)cncc3NC(=O)c3c(N)nn4cc(C5(C#N)CC5)cnc34)CC2)CC1 [I-N-192, 2-amino-6-(1-cyanocyclopropyl)-N-(5-fluoro-4-(4-((4-methylpiperazin-1-yl)methyl)piperidin-1-yl)pyridin-3-yl)pyrazolo[1,5-a]pyrimidine-3-carboxamide] | 0.01 to 1 |
| Nc1nn2cc(Cl)cnc2c1C(=O)Nc1cnccc1OCC(F)(F)F [I-O-59, 2-amino-6-chloro-N-(4-(2,2,2-trifluoroethoxy)pyridin-3-yl)pyrazolo[1,5-a]pyrimidine-3-carboxamide] | 0.01 to 1 |
| CN1CCN(C(=O)C2CCN(c3ccncc3NC(=O)c3c(N)nn4cc(F)cnc34)CC2)CC1 [I-G-1, 2-amino-6-fluoro-N-(4-(4-(4-methylpiperazine-1-carbonyl)piperidin-1-yl)pyridin-3-yl)pyrazolo[1,5-a]pyrimidine-3-carboxamide] | 0.01 to 1 |
| COC(=O)C1CCN(c2ccncc2NC(=O)c2c(N)nn3cc(Cl)cnc23)CC1 [I-N-74, methyl-1-(3-(2-amino-6-chloropyrazolo[1,5-a]pyrimidine-3-carboxamido)pyridin-4-yl)piperidine-4-carboxylate] | 0.01 to 1 |
